Test results reported in patent US12090140B2, “Non-sedating dexmedetomidine treatment regimens” (priority 2023, dated 2024).
Like-named read-outs stand apart in the source and are kept apart here.

Tests used:
[1] = tested on: agitation in subjects suffering from schizophrenia
[2] = human, in vivo, iv
Source text: Mean infusion rate is 0.36 mcg/kg/hr with the maximum rate ranging from about 0.2 mcg/kg/hr to about 0.6 mcg/kg/hr (see FIGS. 18 to 20).

[3] = cited from earlier work
plasma proteins = conditions: cited from earlier work
pregnant rats = conditions: rat, cited from earlier work
pregnant rabbits = conditions: rabbit; intravenous up to 96 mcg/kg/day, GD 6 to 18; cited from earlier work
[4] = tested on: pregnant rats and offspring; conditions: rat, cited from earlier work
[5] = tested on: bacterial reverse mutation; conditions: in vitro Ames bacterial reverse mutation test; cited from earlier work
mouse lymphoma cell = conditions: mammalian mouse lymphoma cell forward mutation assay; cited from earlier work
human lymphocyte = conditions: cited from earlier work
[6] = tested on: bone marrow of CD-1 and NMRI mice; conditions: cited from earlier work
male or female rats = conditions: daily subcutaneous injections up to 54 mcg/kg; cited from earlier work
cytochrome P450 = conditions: human liver microsomes; cited from earlier work
[7] = tested on: adult patients and healthy adult subjects; conditions: loading IV bolus of undiluted drug, 19.4 mcg/kg; one patient; cited from earlier work
[8] = cited from earlier work; remark: listed apart in the source
[9] = radiolabeled, intravenous, after nine days

SMILES: Cc1cccc([C@H](C)c2cnc[nH]2)c1C [Dexmedetomidine, (+) 4-(S)-[1-(2,3-dimethylphenyl)ethyl]-1H-imidazole]
- PEC value ([1]; Patient 1 (treatment arm), 0 min after infusion start): 9
- PEC value ([1]; Patient 1 (treatment arm), 15 min after infusion start): 5
- PEC value ([1]; Patient 2 (treatment arm), 0 min after infusion start): 16
- PEC value ([1]; Patient 2 (treatment arm), 15 min after infusion start): 13
- PEC value ([1]; Patient 2 (treatment arm), 30 min after infusion start): 12
- PEC value ([1]; Patient 2 (treatment arm), 45 min after infusion start): 11
- PEC value ([1]; Patient 2 (treatment arm), 60 min after infusion start): 9
- PEC value ([1]; Patient 2 (treatment arm), 75 min after infusion start): 7
- PEC value ([1]; Patient 3 (treatment arm), 0 min after infusion start): 12
- PEC value ([1]; Patient 3 (treatment arm), 15 min after infusion start): 12
- PEC value ([1]; Patient 3 (treatment arm), 30 min after infusion start): 10
- PEC value ([1]; Patient 3 (treatment arm), 45 min after infusion start): 7
- PEC value ([1]; Patient 3 (treatment arm), 60 min after infusion start): 6
- PEC value ([1]; Patient 4 (treatment arm), 0 min after infusion start): 9
- PEC value ([1]; Patient 4 (treatment arm), 15 min after infusion start): 9
- PEC value ([1]; Patient 4 (treatment arm), 30 min after infusion start): 8
- PEC value ([1]; Patient 4 (treatment arm), 45 min after infusion start): 8
- PEC value ([1]; Patient 4 (treatment arm), 60 min after infusion start): 7
- PEC value ([1]; Patient 4 (treatment arm), 75 min after infusion start): 7
- PEC value ([1]; Patient 4 (treatment arm), 90 min after infusion start): 7
- PEC value ([1]; Patient 4 (treatment arm), 120 min after infusion start): 7
- PEC value ([1]; Patient 4 (treatment arm), […] after infusion start): 7
- PEC value ([1]; Patient 11 (treatment arm), 0 min after infusion start): 13
- PEC value ([1]; Patient 11 (treatment arm), 15 min after infusion start): 13
- PEC value ([1]; Patient 11 (treatment arm), 30 min after infusion start): 11
- PEC value ([1]; Patient 11 (treatment arm), 45 min after infusion start): 9
- PEC value ([1]; Patient 11 (treatment arm), 60 min after infusion start): 9
- PEC value ([1]; Patient 11 (treatment arm), 75 min after infusion start): 7
- PEC value ([1]; Patient 12 (treatment arm), 0 min after infusion start): 13
- PEC value ([1]; Patient 12 (treatment arm), 15 min after infusion start): 13
- PEC value ([1]; Patient 12 (treatment arm), 30 min after infusion start): 13
- PEC value ([1]; Patient 12 (treatment arm), 45 min after infusion start): 10
- PEC value ([1]; Patient 12 (treatment arm), 60 min after infusion start): 10
- PEC value ([1]; Patient 12 (treatment arm), 75 min after infusion start): 8
- PEC value ([1]; Patient 12 (treatment arm), 90 min after infusion start): 6
- PEC value ([1]; Patient 12 (treatment arm), […] after infusion start): 5
- PEC value ([1]; Patient 14 (treatment arm), 0 min after infusion start): 10
- PEC value ([1]; Patient 14 (treatment arm), 15 min after infusion start): 9
- PEC value ([1]; Patient 14 (treatment arm), 30 min after infusion start): 6
- PEC value ([1]; Patient 14 (treatment arm), 45 min after infusion start): 6
- PEC value ([1]; Patient 14 (treatment arm), 60 min after infusion start): 5
- PEC value ([1]; Patient 14 (treatment arm), 75 min after infusion start): 5
- PEC value ([1]; Patient 16 (treatment arm), 0 min after infusion start): 10
- PEC value ([1]; Patient 16 (treatment arm), 15 min after infusion start): 9
- PEC value ([1]; Patient 16 (treatment arm), 30 min after infusion start): 6
- PEC value ([1]; Patient 16 (treatment arm), 45 min after infusion start): 6
- PEC value ([1]; Patient 16 (treatment arm), 60 min after infusion start): 7
- PEC value ([1]; Patient 16 (treatment arm), 75 min after infusion start): 5
- PEC value ([1]; Patient 17 (treatment arm), 0 min after infusion start): 10
- PEC value ([1]; Patient 17 (treatment arm), 15 min after infusion start): 8
- PEC value ([1]; Patient 17 (treatment arm), 30 min after infusion start): 7
- PEC value ([1]; Patient 17 (treatment arm), 45 min after infusion start): 5
- Time to reach Cmax [2]: 15 to 105 min
- Pharmacokinetics (Cmax, Tmax, AUC, t½, CL, and V) in renal impairment versus normal renal function ([3]; creatinine clearance <30 mL/minute): not significantly different
- Extent of biotransformation ([3]; direct glucuronidation and cytochrome P450 (primarily CYP2A6)): almost complete biotransformation
- Clearance ([3]; intravenous administration): approximately 39 L/h
- Steady-state volume of distribution (Vss) ([3]; intravenous administration): approximately 118 liters
- Radioactivity recovered in the feces [3, 9]: 4%
- Radioactivity recovered in the urine [3, 9]: 95%
- Aliphatic hydroxylation products, share of the dose in urine ([3]; radiolabeled, intravenous): approximately 14%
- N-methylation products, share of the dose in urine ([3]; radiolabeled, intravenous): approximately 18%
- Products of N-glucuronidation, share of cumulative urinary excretion ([3]; radiolabeled, intravenous): approximately 34%
- Share of urinary radioactivity excreted within 24 hours after the infusion ([3]; radiolabeled, intravenous): Approximately 85%
- Unchanged drug in the urine ([3]; radiolabeled, intravenous): No unchanged dexmedetomidine was detected
- Urinary metabolites not identified ([3]; radiolabeled, intravenous): Approximately 28%
- Clearance in hepatic impairment (Child-Pugh Class A, B, or C) ([3]; versus normal hepatic function): decreased
- Fraction bound to plasma proteins in hepatic impairment versus healthy subjects (plasma proteins): significantly decreased
- Average protein binding (plasma proteins; plasma of healthy male and female subjects): 94%
- Malformations (pregnant rats; any dose level): No malformations
- Embryo-fetal findings (pregnant rats; subcutaneous 20 mcg/kg/day): No embryo-fetal toxicity
- Embryo-fetal findings (pregnant rats; subcutaneous 200 mcg/kg/day, GD 5 to 16, with maternal toxicity): Increased post-implantation losses and reduced live pups
- Malformation or embryo-fetal toxicity (pregnant rabbits): No malformation or embryo-fetal toxicity
- Developmental findings when first generation offspring were mated ([4]; 32 mcg/kg/day): Decreased viability of second generation offspring and an increase in early implantation loss along with delayed motor development
- Developmental findings ([4]; subcutaneous 8 mcg/kg/day, GD 16 to PND 25): Reduced pup and adult offspring weights and grip strength
- Mutagenicity [5]: not mutagenic
- Mutagenicity (mouse lymphoma cell): not mutagenic
- Clastogenicity (human lymphocyte; absence or presence of human liver S9 metabolic activation): not clastogenic
- Clastogenicity (human lymphocyte; presence of rat liver S9 metabolic activation): weak clastogenic response
- Clastogenicity ([6]; CD-1 mice): not clastogenic
- Clastogenicity ([6]; NMRI mice): some evidence for clastogenicity
- Fertility (male or female rats): not affected
- Cytochrome P450 mediated drug interactions (cytochrome P450): no evidence of cytochrome P450 mediated drug interactions
- Effects of overdose [7]: cardiac arrest
- Placental transfer ([8]; available data in humans): crosses the placenta
- Presence in human milk ([8]; following intravenous administration, published literature): presence of dexmedetomidine in human milk
